Laboratory results from patent US20040225017A1, “Chloramine T based teat cleaner and related process” (priority 2003, published 2004).

Key:
[1] = pH at which the solution buffers out; assay type: physicochemical; settings: in solution, residual on teat surface
teat area of animals = settings: in vivo

- pH at which it naturally buffers out [1]: about 9
SMILES: Cc1ccc(S(=O)(=O)[N-]Cl)cc1.[Na+] [CHT, Chloramine T]
- irritation of the teat area (teat area of animals): do not irritate the teat area
